System: 485176-168-R4-J1-PDC complex spheroid growth
Assay: Anticancer human tumor 485176-168-R4-J1-PDC patient-derived pancreatic adenocarcinoma cell line growth inhibition [RAS]
Conditions: for IC50: curve of first compound; for viability, T/C: stronger effect = lower value
Procedure, shortened: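 Agents were tested in combination matrices in half-log decrements from a top concentration at or near clinical Cmax (10 microM if undetermined). Targets were multi-cell spheroids of tumour lines plus HUVEC and MSC stromal cells.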
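Further: spheroids exposed to compounds for seven days before readout.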
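Wherever viability, T/C is given: luminescence viability expressed relative to DMSO vehicle wells set as 100%.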

CCc1c2c(nc3ccc(O)cc13)-c1cc3c(c(=O)n1C2)COC(=O)[C@]3(O)CC + C#Cc1c(F)ccc2cc(O)cc(-c3ncc4c(N5CC6CCC(C5)N6)nc(OCC56CCCN5CC(F)C6)nc4c3F)c12 was tested, and the IC50 (second compound 0.0316 µM) was 19.3 nM, the IC50 (second compound 0.1 µM) was 13.4 nM and the IC50 (second compound 0.316 µM) was 16.4 nM. For the same compound, the IC50 (second compound 1 µM) was 17.8 nM, the IC50 (second compound 3.16 µM) was 22.1 nM and the IC50 (second compound 10 µM) was 27.2 nM. The viability, T/C (second compound 0.0316 µM, first compound 0.000949 µM) was 93.9%, the viability, T/C (second compound 0.0316 µM, first compound 0.003 µM) was 82.8% and the viability, T/C (second compound 0.0316 µM, first compound 0.00949 µM) was 71.2%. The viability, T/C (second compound 0.0316 µM, first compound 0.03 µM) was 36.8%, the viability, T/C (second compound 0.0316 µM, first compound 0.0949 µM) was 16.7% and the viability, T/C (second compound 0.0316 µM, first compound 0.3 µM) was 7.74%. For the same compound, the viability, T/C (second compound 0.1 µM, first compound 0.000949 µM) was 102%, the viability, T/C (second compound 0.1 µM, first compound 0.003 µM) was 96.7% and the viability, T/C (second compound 0.1 µM, first compound 0.00949 µM) was 52.9%. For the same compound, the viability, T/C (second compound 0.1 µM, first compound 0.03 µM) was 32.2%, the viability, T/C (second compound 0.1 µM, first compound 0.0949 µM) was 18.3% and the viability, T/C (second compound 0.1 µM, first compound 0.3 µM) was 6.56%. For the same compound, the viability, T/C (second compound 0.316 µM, first compound 0.000949 µM) was 112%, the viability, T/C (second compound 0.316 µM, first compound 0.003 µM) was 107% and the viability, T/C (second compound 0.316 µM, first compound 0.00949 µM) was 60.7%. For the same compound, the viability, T/C (second compound 0.316 µM, first compound 0.03 µM) was 35.2%, the viability, T/C (second compound 0.316 µM, first compound 0.0949 µM) was 16% and the viability, T/C (second compound 0.316 µM, first compound 0.3 µM) was 6.47%. For the same compound, the viability, T/C (second compound 1 µM, first compound 0.000949 µM) was 102%, the viability, T/C (second compound 1 µM, first compound 0.003 µM) was 94.4% and the viability, T/C (second compound 1 µM, first compound 0.00949 µM) was 63%. The viability, T/C (second compound 1 µM, first compound 0.03 µM) was 38.6%, the viability, T/C (second compound 1 µM, first compound 0.0949 µM) was 15.9% and the viability, T/C (second compound 1 µM, first compound 0.3 µM) was 7.94%. It also gave a viability, T/C (second compound 3.16 µM, first compound 0.000949 µM) of 94.7%, a viability, T/C (second compound 3.16 µM, first compound 0.003 µM) of 101% and a viability, T/C (second compound 3.16 µM, first compound 0.00949 µM) of 69.3%. It also gave a viability, T/C (second compound 3.16 µM, first compound 0.03 µM) of 42.9%, a viability, T/C (second compound 3.16 µM, first compound 0.0949 µM) of 19.1% and a viability, T/C (second compound 3.16 µM, first compound 0.3 µM) of 9.06%. For the same compound, the viability, T/C (second compound 10 µM, first compound 0.000949 µM) was 127%, the viability, T/C (second compound 10 µM, first compound 0.003 µM) was 90.6% and the viability, T/C (second compound 10 µM, first compound 0.00949 µM) was 77.9%. It also gave a viability, T/C (second compound 10 µM, first compound 0.03 µM) of 46.6%, a viability, T/C (second compound 10 µM, first compound 0.0949 µM) of 17.7% and a viability, T/C (second compound 10 µM, first compound 0.3 µM) of 6.96%.

Nc1ccn(C2OC(CO)C(O)C2(F)F)c(=O)n1 (centres undefined) + C#Cc1c(F)ccc2cc(O)cc(-c3ncc4c(N5CC6CCC(C5)N6)nc(OCC56CCCN5CC(F)C6)nc4c3F)c12 gave an IC50 (second compound 0.0316 µM) of 17.3 nM, an IC50 (second compound 0.1 µM) of 16.4 nM and an IC50 (second compound 0.316 µM) of 14.2 nM. For the same compound, the IC50 (second compound 1 µM) was 18.2 nM, the IC50 (second compound 3.16 µM) was 15.3 nM and the IC50 (second compound 10 µM) was 15.3 nM. For the same compound, the viability, T/C (second compound 0.0316 µM, first compound 0.00316 µM) was 84%, the viability, T/C (second compound 0.0316 µM, first compound 0.01 µM) was 80.9% and the viability, T/C (second compound 0.0316 µM, first compound 0.0316 µM) was 15.7%. For the same compound, the viability, T/C (second compound 0.0316 µM, first compound 0.1 µM) was 8.52%, the viability, T/C (second compound 0.0316 µM, first compound 0.316 µM) was 8.6% and the viability, T/C (second compound 0.0316 µM, first compound 1 µM) was 8.88%. For the same compound, the viability, T/C (second compound 0.1 µM, first compound 0.00316 µM) was 87.7%, the viability, T/C (second compound 0.1 µM, first compound 0.01 µM) was 76.1% and the viability, T/C (second compound 0.1 µM, first compound 0.0316 µM) was 15.6%. It also gave a viability, T/C (second compound 0.1 µM, first compound 0.1 µM) of 8.78%, a viability, T/C (second compound 0.1 µM, first compound 0.316 µM) of 9.24% and a viability, T/C (second compound 0.1 µM, first compound 1 µM) of 9.6%. For the same compound, the viability, T/C (second compound 0.316 µM, first compound 0.00316 µM) was 80.7%, the viability, T/C (second compound 0.316 µM, first compound 0.01 µM) was 66.1% and the viability, T/C (second compound 0.316 µM, first compound 0.0316 µM) was 13.2%. The viability, T/C (second compound 0.316 µM, first compound 0.1 µM) was 7.37%, the viability, T/C (second compound 0.316 µM, first compound 0.316 µM) was 11.3% and the viability, T/C (second compound 0.316 µM, first compound 1 µM) was 10.4%. The viability, T/C (second compound 1 µM, first compound 0.00316 µM) was 94.8%, the viability, T/C (second compound 1 µM, first compound 0.01 µM) was 84.9% and the viability, T/C (second compound 1 µM, first compound 0.0316 µM) was 17.8%. The viability, T/C (second compound 1 µM, first compound 0.1 µM) was 7.27%, the viability, T/C (second compound 1 µM, first compound 0.316 µM) was 10.2% and the viability, T/C (second compound 1 µM, first compound 1 µM) was 9.53%. For the same compound, the viability, T/C (second compound 3.16 µM, first compound 0.00316 µM) was 82.5%, the viability, T/C (second compound 3.16 µM, first compound 0.01 µM) was 69.7% and the viability, T/C (second compound 3.16 µM, first compound 0.0316 µM) was 16.5%. It also gave a viability, T/C (second compound 3.16 µM, first compound 0.1 µM) of 10.8%, a viability, T/C (second compound 3.16 µM, first compound 0.316 µM) of 10.5% and a viability, T/C (second compound 3.16 µM, first compound 1 µM) of 10.3%. The viability, T/C (second compound 10 µM, first compound 0.00316 µM) was 92.4%, the viability, T/C (second compound 10 µM, first compound 0.01 µM) was 71.2% and the viability, T/C (second compound 10 µM, first compound 0.0316 µM) was 14.2%. For the same compound, the viability, T/C (second compound 10 µM, first compound 0.1 µM) was 11.5%, the viability, T/C (second compound 10 µM, first compound 0.316 µM) was 10.9% and the viability, T/C (second compound 10 µM, first compound 1 µM) was 9.84%.
